Values of other authors, collected in patent US10463641B2, “Method for using small molecule compounds to induce human tumor cells to be directly reprogrammed into non-oncogenic cells” (Transcend Cytotherapy Co., Ltd, priority 2015, dated 2019).
One block for each compound: values may come before it.

Key:
[1] = biological target: GSK-3β (Homo sapiens, UniProt P49841); details: vs CDC2, ERK2 and other kinases
[2] = biological target: ALK2 (Homo sapiens, UniProt Q04771); details: DMH1
[3] = system: AMPK, ALK5, KDR (VEGFR-2) and PDGFR
[4] = system: TGF-β type II receptor and activin type II receptor
[5] = biological target: T1, BMP type II receptor (Homo sapiens, UniProt Q13873)
T1 sequence (Q13873 27-1038): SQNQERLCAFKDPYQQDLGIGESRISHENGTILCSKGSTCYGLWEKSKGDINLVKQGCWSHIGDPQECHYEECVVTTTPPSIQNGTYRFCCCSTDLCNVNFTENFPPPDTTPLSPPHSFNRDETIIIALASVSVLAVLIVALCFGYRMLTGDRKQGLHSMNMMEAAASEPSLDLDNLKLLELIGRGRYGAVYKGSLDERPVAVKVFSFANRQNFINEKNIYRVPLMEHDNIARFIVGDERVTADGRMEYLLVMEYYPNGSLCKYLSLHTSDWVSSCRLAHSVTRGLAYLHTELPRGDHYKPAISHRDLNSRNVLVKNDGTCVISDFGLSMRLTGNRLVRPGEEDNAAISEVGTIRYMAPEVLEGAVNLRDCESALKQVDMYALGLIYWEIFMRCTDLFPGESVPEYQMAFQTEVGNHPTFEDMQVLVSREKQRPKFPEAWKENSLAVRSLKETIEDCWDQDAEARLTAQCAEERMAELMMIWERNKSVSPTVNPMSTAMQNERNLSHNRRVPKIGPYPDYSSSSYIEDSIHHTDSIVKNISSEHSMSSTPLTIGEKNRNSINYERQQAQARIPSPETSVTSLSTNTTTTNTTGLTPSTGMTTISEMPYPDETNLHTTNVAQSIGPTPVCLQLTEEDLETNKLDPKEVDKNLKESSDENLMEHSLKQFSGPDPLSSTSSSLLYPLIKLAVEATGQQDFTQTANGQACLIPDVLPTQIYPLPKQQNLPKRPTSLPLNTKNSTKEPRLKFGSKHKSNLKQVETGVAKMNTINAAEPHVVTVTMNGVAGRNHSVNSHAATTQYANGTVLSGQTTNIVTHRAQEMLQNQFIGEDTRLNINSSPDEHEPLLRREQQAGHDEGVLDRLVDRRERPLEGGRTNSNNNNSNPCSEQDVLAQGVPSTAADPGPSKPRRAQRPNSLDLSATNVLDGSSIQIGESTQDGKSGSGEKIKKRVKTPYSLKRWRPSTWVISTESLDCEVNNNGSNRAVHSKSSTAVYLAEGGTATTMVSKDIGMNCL

[6] = system: BMP type I receptor ALK2
[7] = biological target: BMP type I receptor ALK3; details: C2C12 cells; read-out: IC50, transcription activity of BMP type I receptor ALK3
[8] = biological target: ALK1 (Homo sapiens, UniProt P37023)
ALK1, sequence (P37023 22-503, species assumed): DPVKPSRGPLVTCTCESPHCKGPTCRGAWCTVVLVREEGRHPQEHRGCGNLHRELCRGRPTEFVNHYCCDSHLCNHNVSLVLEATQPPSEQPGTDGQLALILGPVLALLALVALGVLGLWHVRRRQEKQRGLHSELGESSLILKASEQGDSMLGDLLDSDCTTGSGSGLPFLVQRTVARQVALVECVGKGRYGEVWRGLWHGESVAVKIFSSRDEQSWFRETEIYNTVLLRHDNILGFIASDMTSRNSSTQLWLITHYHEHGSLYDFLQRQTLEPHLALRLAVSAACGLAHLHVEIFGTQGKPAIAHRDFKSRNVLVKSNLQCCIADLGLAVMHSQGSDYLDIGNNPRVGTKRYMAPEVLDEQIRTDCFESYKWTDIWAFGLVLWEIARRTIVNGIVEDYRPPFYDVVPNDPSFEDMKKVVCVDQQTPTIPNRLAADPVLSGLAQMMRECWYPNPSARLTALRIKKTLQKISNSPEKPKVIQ

[9] = biological target: ALK6 (Homo sapiens, UniProt O00238)
ALK6, sequence (O00238 14-502): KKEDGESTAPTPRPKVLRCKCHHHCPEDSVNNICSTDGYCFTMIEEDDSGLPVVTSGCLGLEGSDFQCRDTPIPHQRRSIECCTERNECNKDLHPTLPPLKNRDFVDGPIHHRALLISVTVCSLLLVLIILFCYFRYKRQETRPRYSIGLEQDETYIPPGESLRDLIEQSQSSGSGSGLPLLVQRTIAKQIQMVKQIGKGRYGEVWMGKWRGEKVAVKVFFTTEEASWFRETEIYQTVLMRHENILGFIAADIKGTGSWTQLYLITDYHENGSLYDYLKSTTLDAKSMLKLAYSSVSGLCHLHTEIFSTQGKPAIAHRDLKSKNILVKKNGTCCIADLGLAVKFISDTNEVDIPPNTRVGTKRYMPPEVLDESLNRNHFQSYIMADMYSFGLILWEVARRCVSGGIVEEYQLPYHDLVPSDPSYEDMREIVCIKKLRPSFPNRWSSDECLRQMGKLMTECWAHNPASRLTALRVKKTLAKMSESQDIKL

[10] = system: and ActRIIa
[11] = biological target: T2, ALK7 (Homo sapiens, UniProt Q8NER5); details: qualitative
T2 sequence (Q8NER5 21-493): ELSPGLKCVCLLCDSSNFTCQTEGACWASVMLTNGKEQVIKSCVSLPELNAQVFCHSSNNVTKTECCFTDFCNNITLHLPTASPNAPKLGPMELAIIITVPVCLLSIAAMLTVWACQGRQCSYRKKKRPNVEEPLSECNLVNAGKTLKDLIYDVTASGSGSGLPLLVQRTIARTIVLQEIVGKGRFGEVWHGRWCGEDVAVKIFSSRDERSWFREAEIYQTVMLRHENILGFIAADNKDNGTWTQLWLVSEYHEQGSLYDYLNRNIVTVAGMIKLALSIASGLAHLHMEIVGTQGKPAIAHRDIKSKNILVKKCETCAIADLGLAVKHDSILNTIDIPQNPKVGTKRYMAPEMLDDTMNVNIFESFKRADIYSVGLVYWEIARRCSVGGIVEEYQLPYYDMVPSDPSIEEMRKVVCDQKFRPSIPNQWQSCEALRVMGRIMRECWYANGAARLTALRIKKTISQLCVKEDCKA

[12] = system: ALK1, 2, 3 or 6
[13] = biological target: T3, ALK4 (Homo sapiens, UniProt P36896); details: ALK4 vs ALK5
T3 sequence (P36896 24-505): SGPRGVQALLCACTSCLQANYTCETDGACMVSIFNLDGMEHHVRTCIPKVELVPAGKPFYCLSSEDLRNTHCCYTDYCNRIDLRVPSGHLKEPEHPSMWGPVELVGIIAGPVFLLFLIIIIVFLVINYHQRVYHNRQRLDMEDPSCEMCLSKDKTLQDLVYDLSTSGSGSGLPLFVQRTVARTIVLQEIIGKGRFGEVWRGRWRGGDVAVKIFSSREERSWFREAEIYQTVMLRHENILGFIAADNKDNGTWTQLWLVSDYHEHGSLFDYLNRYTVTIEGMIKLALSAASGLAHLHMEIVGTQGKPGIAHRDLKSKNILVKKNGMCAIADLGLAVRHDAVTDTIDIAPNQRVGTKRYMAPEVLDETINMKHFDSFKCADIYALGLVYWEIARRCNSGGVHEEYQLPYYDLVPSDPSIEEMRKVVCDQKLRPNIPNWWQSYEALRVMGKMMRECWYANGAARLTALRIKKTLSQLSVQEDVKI

[14] = system: ALK2, 3 and 6
[15] = biological target: ALK5 (Homo sapiens, UniProt P36897); details: vs TGF-βRII
ALK5, sequence (P36897 34-503, species assumed): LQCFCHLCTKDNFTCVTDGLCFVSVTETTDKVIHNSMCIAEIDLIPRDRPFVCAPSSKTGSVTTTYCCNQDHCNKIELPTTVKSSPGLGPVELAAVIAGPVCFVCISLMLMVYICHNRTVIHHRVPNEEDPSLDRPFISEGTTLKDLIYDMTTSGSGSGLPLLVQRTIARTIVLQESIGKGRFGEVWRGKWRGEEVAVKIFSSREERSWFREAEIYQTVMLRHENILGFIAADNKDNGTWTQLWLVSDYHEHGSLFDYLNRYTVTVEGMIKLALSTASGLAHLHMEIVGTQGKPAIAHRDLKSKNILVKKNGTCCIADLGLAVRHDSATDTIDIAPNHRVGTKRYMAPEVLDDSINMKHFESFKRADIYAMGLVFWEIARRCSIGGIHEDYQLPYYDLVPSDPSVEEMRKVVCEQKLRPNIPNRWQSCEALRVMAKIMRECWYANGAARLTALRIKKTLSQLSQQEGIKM

GSK-3β, sequence (P49841 whole entry): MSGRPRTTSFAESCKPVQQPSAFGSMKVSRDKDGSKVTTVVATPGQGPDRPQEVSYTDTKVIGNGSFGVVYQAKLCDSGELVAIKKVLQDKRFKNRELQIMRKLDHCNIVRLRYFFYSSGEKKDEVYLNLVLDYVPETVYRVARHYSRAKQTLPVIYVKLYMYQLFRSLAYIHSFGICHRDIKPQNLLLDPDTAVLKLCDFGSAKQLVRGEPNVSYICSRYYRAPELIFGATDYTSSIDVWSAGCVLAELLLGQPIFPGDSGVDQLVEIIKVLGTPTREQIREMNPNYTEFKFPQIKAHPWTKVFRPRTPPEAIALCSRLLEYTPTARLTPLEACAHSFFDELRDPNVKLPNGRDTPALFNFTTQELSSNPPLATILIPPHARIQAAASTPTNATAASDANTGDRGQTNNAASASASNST
ALK2, sequence (Q04771 21-509): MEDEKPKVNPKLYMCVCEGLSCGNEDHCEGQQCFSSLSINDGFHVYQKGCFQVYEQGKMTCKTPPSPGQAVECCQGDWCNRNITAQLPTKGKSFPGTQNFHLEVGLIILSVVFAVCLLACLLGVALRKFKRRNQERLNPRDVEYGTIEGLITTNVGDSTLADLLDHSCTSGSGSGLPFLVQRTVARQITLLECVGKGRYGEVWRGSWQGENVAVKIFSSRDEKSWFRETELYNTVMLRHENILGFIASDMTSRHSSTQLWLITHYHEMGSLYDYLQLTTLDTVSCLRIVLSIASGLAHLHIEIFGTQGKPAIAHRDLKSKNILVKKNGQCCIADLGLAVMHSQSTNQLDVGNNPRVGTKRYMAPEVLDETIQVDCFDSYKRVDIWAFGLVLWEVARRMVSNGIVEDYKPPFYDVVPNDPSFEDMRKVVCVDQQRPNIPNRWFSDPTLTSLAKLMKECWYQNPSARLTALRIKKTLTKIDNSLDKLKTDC

Compound: Cc1cnc(-c2cnc(NCCNc3ccc(C#N)cn3)nc2-c2ccc(Cl)cc2Cl)[nH]1 [CHIR-99021]
inhibition of GSK-3 stronger than inhibition on CDC2, ERK2 and other kinases [1]: 500 fold

IC50 [2]: 108 nM
Compound: CC(C)Oc1ccc(-c2cnc3c(-c4ccnc5ccccc45)cnn3c2)cc1 [DMH1]
inhibiting activity on AMPK, ALK5, KDR (VEGFR-2) and PDGFR [3]: no inhibiting activity

Compound: O=C(NC1CCOCC1)c1ccc(-c2cc(-c3c[nH]nc3-c3ccccn3)ccn2)cc1 [GW788388]
inhibition of TGF-β type II receptor and activin type II receptor [4]: also inhibiting
inhibition of BMP type II receptor [5]: not BMP type II receptor

Compound: c1ccc2c(-c3cnn4cc(-c5ccc(N6CCNCC6)cc5)cnc34)ccnc2c1 [LDN-193189]
selectivity on BMP higher than on TGF-β ([6]; BMP vs TGF-β): 200 fold
IC50 ([6]; C2C12 cells, read-out: IC50, transcription activity of BMP type I receptor ALK2): 5 nM
IC50 [7]: 30 nM

IC50 [8]: 1.8 nM
IC50 [9]: 6.4 nM
Compound: COc1cc(-c2cc(-c3cccc(O)c3)cnc2N)cc(OC)c1OC [Medium K02288]
inhibiting activity on other ALK5 (3, 4, 5) and ActRIIa [10]: slight inhibiting activity

Compound: Cc1cccc(-c2[nH]c(C(C)(C)C)nc2-c2ccc3c(c2)OCO3)n1 [SB505124]
inhibition of ALK7 [11]: also inhibiting ALK7
inhibition of ALK1, 2, 3 or 6 [12]: not ALK1, 2, 3 or 6

Compound: Cc1cccc(-c2[nH]c(C(C)(C)C)nc2-c2ccc3nccnc3c2)n1 [SB525334]
effect on ALK4 lower than on ALK5 [13]: 4 fold
activity to ALK2, 3 and 6 [14]: no activity

selectivity for TGF-βRI (ALK5) higher than on TGF-βRII [15]: more than 100 fold
Compound: SD-208
